Assay results published in US9717742B2, “Oxysterol analogue OXY133 induces osteogenesis and hedgehog signaling and inhibits adipogenesis” (The Regents of the University of California, priority 2012, dated 2017).

How the values were obtained:
[1] = system: M2-10B4 (M2) bone marrow stromal cells; experiment: Alkaline phosphatase (ALP) activity assay on whole cell extracts, M2 cells; assay type: cell-based, mouse; conditions: data not shown
Lewis rats [2] = conditions: prior studies (15), 4 weeks; cited from earlier work
Lewis rats [3] = experiment: Posterolateral intertransverse process spinal fusion at L4-L5 in rats; assay type: in vivo, rat; conditions: for Fusion Rates (%) Manual Palpation / Fusion Rates (%) Micro-CT / Fusion Rates (%) X-ray: at sacrifice (8 weeks); for bilateral fusion on radiographs: four weeks; for trabecular thickness: micro-CT, 8 weeks
Description: Thirty-eight 8-week-old male Lewis rats were purchased from Charles River Laboratories (Wilmington, Mass.) and were maintained and housed at the UCLA vivarium in accordance with regulations set forth by the UCLA Office of Protection of Research Subjects. The study was performed under a protocol approved by the UCLA Animal Research Committee (ARC).
Animals were pre-medicated with sustained release buprenorphine thirty minutes prior to surgery and anesthetized with 2% isoflurane administered in oxygen (1 L/min). The surgical site was shaved and disinfected with Betadine and 70% ethanol. Posterolateral intertransverse process spinal fusion at L4-L5 was performed as in prior studies (21, 22). The L6 vertebral body was identified using the iliac crest as a landmark. A 4-cm longitudinal midline incision was made through the skin and subcutaneous tissue over L4-L5 down to the lumbodorsal fascia. A 2-cm longitudinal paramedial incision was then made in the paraspinal muscles bilaterally to expose the transverse processes of L4-L5, which were decorticated with a high-speed burr. The surgical site was then irrigated with sterile saline, and 5 mm×5 mm×13 mm pieces of collagen sponge (Helistat, Integra Life Sciences) containing dimethyl sulfoxide (DMSO) control, rhBMP-2, or Oxy133 were placed bilaterally, with each implant spanning the transverse processes. The implants were then covered with the overlying paraspinal muscles and the lumbodorsal fascia and skin were closed with 4-0 Prolene sutures (Ethicon, Inc., Somerville, N.J.). Animals were allowed to ambulate, eat, and drink ad libitum immediately after surgery.
Posteroanterior radiographs of the lumbar spine were taken on each animal at 4, 6, and 8 weeks after surgery using a Faxitron LX60 cabinet radiography system and evaluated blindly by two independent observers employing the following standardized scale: 0, no fusion; 1, unilateral fusion; and 2, complete bilateral fusion. The scores from the observers were added together and only a score of 4 was considered as complete fusion.
Eight weeks after surgery, animals were euthanized and the spines were surgically removed and evaluated by two blinded independent observers for motion between levels. Nonunion was recorded if motion was observed between the facets or transverse processes on either side. Complete fusion was recorded if no motion was observed bilaterally. Spines were scored as either fused or not fused. Unanimous agreement was required to consider complete fusion.
Each removed spine was analyzed by high resolution micro-computed tomography (micro-CT), using a SkyScan 1172 scanner (SkyScan, Belgium) with a voxel isotropic resolution of 20 μm and an X-ray energy of 55 kVp and […] to further assess the fusion rate and observe the fusion mass as we have previously reported (15). Three hundred and sixty projections were acquired over an angular range of 180° with steps of 0.5 with an exposure time of 220 msec/slice. Five frames were averaged at each rotation step to get better signal to noise ratio. A 0.5 mm aluminum filter was used to narrow down the X-ray beam frequency in order to minimize beam hardening artifact. Virtual image slices were reconstructed using the cone-beam reconstruction software version 2.6 based on the Feldkamp algorithm (SkyScan). These settings produced serial cross-sectional 1024×1024 pixel images. Sample re-orientation and 2D visualization were performed using DataViewer (SkyScan). 3D visualization was performed using Dolphin Imaging version 11 (Dolphin Imaging & Management Solutions, Chatsworth, Calif.). Fusion was defined as the bilateral presence of bridging bone between the L4 and L5 transverse processes. The reconstructed images were judged to be fused or not fused by two experienced independent observers.

[4] = system: 8×-Gli luciferase reporter (Hedgehog signaling); experiment: Gli-dependent luciferase reporter assay in C3H cells; assay type: cell-based, mouse; conditions: 48 hours
Description: After 4 days ALP activity, and after 7 days the expression of osteogenic genes ALP, BSP, and OSX was measured by quantitative real-time PCR (p<0.001 for control vs. Oxy133, and for Oxy133 vs. Oxy133+Cyc for ALP activity and for the expression of all genes shown). […] (p<0.001 for control vs. Oxy133 at 100 nM, 250 nM, and 1 μM Oxy133). (FIG. 4C) The amount of YFP-Smo captured by 20S beads or control beads was compared in samples containing either no competitor or 50 μM of a free competitor sterol (20S, Oxy133 or Oxy16). The YFP-Smo captured by the beads was measured by Western blot (top) and plotted (bottom) relative to the amount captured in the binding reaction with no competitor.
Cells at 70% confluence in 24-well plates were transiently transfected with Gli-dependent firefly luciferase and Renilla luciferase vectors as we have previously described (17, 18). […] Luciferase activity was assessed using the Dual Luciferase Reporter Assay System (Promega Corporation, Madison, Wis.) according to manufacturer's instructions after cells were treated for 48 hours.

For `CC1=C2C[C@H]3[C@@H](CC=C4C[C@@H](O)CC[C@@]43C)[C@@H]2CC[C@]12O[C@@H]1C[C@H](C)CN[C@H]1[C@H]2C` [Cyclopamine], the “inhibition of Oxy133-induced ALP activity and expression of osteogenic markers” value [1] was “completely inhibited”.

In the case of `CC(C)CCCC(C)(O)C1CCC2C3CC(O)C4CC(O)CCC4(C)C3CCC21C` (stereo not shown) [Oxy34], the “fusion at the 4 week time point in prior studies” value (Lewis rats [2]) is given as “no fusion”.

For `C=C(C)CCC[C@](C)(O)[C@H]1CC[C@H]2[C@@H]3C[C@H](O)[C@H]4C[C@@H](O)CC[C@]4(C)[C@H]3CC[C@@]21C` [Oxy49], the “fusion at the 4 week time point in prior studies” value (Lewis rats [2]) is listed as “no fusion”.

In the case of `CCCCCC[C@](C)(O)[C@H]1CC[C@H]2[C@@H]3C[C@H](O)[C@H]4C[C@@H](O)CC[C@]4(C)[C@H]3CC[C@@]21C` [Oxy133, (3S,5S,6S,8R,9S,10R,13S,14S,17S) 17-((S)-2-hydroxyoctan-2-yl)-10,13-dimethylhexadecahydro-1H-cyclopenta[a]phenanthrene-3,6-diol], the “Fusion Rates (%) Manual Palpation” value (Lewis rats [3]; Oxy133 0.2 mg) is reported as 0%, the “Fusion Rates (%) Micro-CT” value (Lewis rats [3]; Oxy133 0.2 mg) is reported as 0% and the “Fusion Rates (%) X-ray” value (Lewis rats [3]; Oxy133 0.2 mg) is reported as 0%. For the same molecule, the “bilateral fusion, micro-CT” value (Lewis rats [3]; Oxy133 2 mg) was 4/8, the “bilateral fusion confirmed on manual palpation” value (Lewis rats [3]; Oxy133 2 mg, after sacrifice) was 4/8 and the “Fusion Rates (%) Manual Palpation” value (Lewis rats [3]; Oxy133 2 mg) was 50%. The “Fusion Rates (%) Micro-CT” value (Lewis rats [3]; Oxy133 2 mg) was 50%, the “Fusion Rates (%) X-ray” value (Lewis rats [3]; Oxy133 2 mg) was 50% and the fusion on radiographs (Lewis rats [3]; Oxy133 2 mg, eight weeks) was 4/8. The “bilateral fusion on radiographs” value (Lewis rats [3]; Oxy133 2 mg) was 3/8, the “trabecular thickness” value (Lewis rats [3]; Oxy133 2 mg) was 134.008 and the “bilateral fusion by manual assessment” value (Lewis rats [3]; Oxy133 20 mg, after sacrifice) was 6/7. For the same molecule, the “Fusion Rates (%) Manual Palpation” value (Lewis rats [3]; Oxy133 20 mg) was 86%, the “Fusion Rates (%) Micro-CT” value (Lewis rats [3]; Oxy133 20 mg) was 100% and the “Fusion Rates (%) X-ray” value (Lewis rats [3]; Oxy133 20 mg) was 100%. For the same molecule, the “bilateral fusion on radiographs” value (Lewis rats [3]; Oxy133 20 mg) was 6/7, the “trabecular thickness” value (Lewis rats [3]; Oxy133 20 mg) was 124.737 and the “induction of Gli-dependent reporter activity” value ([4]; 100 nM) was 5 fold. The “induction of Gli-dependent reporter activity” value ([4]; at 1 Oxy133 (unit not given)) was 17 fold.
